What was measured:
[1] = hepatocyte stability (human); type: in vitro ADME; details: hepatocytes
permeability (Papp) = type: in vitro ADME; details: not told
[2] = system: rats sensitized to the HDM allergen extract; test: HDM extract challenge in rats sensitized to the HDM allergen extract (BAL cells and mediators); type: in vivo, BN rats
Source text: Control animals received saline vehicle treatment.

[3] = system: rat airway epithelial cell line L2; test: Cellular stability in L2 cells; type: in vitro ADME; details: 100 nM compound
Description: Cellular Stability of Compounds
The cellular stability of compounds in vitro was tested using rat airway epithelial cell line L2 and rat alveolar macrophage line NR8383 (ATCC©CRL-2192™). Assays were performed in replicate and the data expressed as mean ± s.e. mean. L2 cells were cultured to confluence in T25 flasks or 24 -well plates using Kaighn’s modification of Ham’s F12 medium (F12K). Cells were prepared for assay by washing 3 times with serum-free F12K. NR8383 Airway macrophages were grown in suspension culture in F12K, collected by centrifugation, washed in serum-free medium and aliquoted into test plates (1.4 x 10^6 cells/well). Both cell lines were treated with ADI compounds (100 nM) in serum -free F12K in a 5% CO 2 environment at 37 °C. Samples were removed for quantitative analysis by LC -MS-MS using appropriate multiple reaction monitoring transitions for each analyte. […]
n-Octanol (0.7 mL), pre -saturated with 10 mM PBS, pH7.4, was added to test compound (~1 mg) in a 2 mL HPLC vial followed by PBS (0. 7 mL), which had been pre -saturated with n -octanol. The mixture was shaken for 90 min before centrifugation for 10 min at 4,000 rpm. The upper organic layer (0.2 mL) and the aqueous layer (0.5 mL) were removed for analysis by LC-MS. Peak identity was confirmed by mass spectrometry and concentration assessed spectrophotometrically using a diode array detector. The log

[4] = HDM 1, dosed 2 or 4 h before challenge, BAL 48 h
[5] = HDM 10, single i.t. aerosol dose 2 h before (15 μg/kg compound 1, 46 μg/kg compound 2), BAL 48 h
[6] = stronger challenge HDM 10, 15 μg/kg i.t. aerosol 2 h prior

CC(C)[C@H](NC(=O)[C@H](C)NC(=O)[C@@H](NC(=O)c1ccccc1)C(C)(C)C)C(=O)C(=O)NCc1ccccc1 [Compound 1, N-{(S)-1-[(S)-1-((S)-1-benzylaminooxalyl-2-methyl-propylcarbamoyl)-ethylcarbamoyl]-2,2-dimethyl-propyl}-benzamide]
half-life [1]: 3.02 h | CLint scaled ([1]; read-out: hepatocyte intrinsic clearance): 11.7 mL/min/kg | Papp (permeability (Papp)): 6.2 ×10⁻⁶ cm/s | BAL eosinophil responses ([2]; HDM 1 (1 μg Der p 1), dosed i.t. aerosol 2 or 4 h before challenge, BAL 48 h): suppressed | BAL neutrophil recruitment [2, 4]: No effect | CCL-2 in BAL fluid [2, 4]: suppressed | CCL-20 in BAL fluid [2, 4]: suppressed | IL-13 in BAL fluid [2, 4]: suppressed | IL-33 in BAL fluid [2, 4]: suppressed | TSLP in BAL fluid ([2]; HDM 1, dosed 2 h before challenge, BAL 48 h): suppressed | TSLP in BAL fluid ([2]; HDM 1, dosed 4 h before challenge, BAL 48 h, 'except' = not suppressed): except for TSLP | changes in BAL cells after HDM challenge ([2]; HDM 10 (10 μg Der p 1) i.t. aerosol, single i.t. aerosol dose 2 h before (15 μg/kg compound 1, 46 μg/kg compound 2), BAL 48 h): attenuated | BAL eosinophils after HDM challenge [2, 5]: eosinophil suppression | BAL monocytes/macrophages after HDM challenge [2, 5]: No effects | BAL neutrophil responses after HDM challenge [2, 5]: not significant | IL-6 responses in BAL [2, 6]: unaffected | IL-13 in BAL [2, 6]: inhibitory effects | IL-33 in BAL [2, 6]: inhibitory effects | TSLP in BAL [2, 6]: inhibitory effects | cell stability [3]: 100; 100

Source: article PMC9469500, “Targeting an Initiator Allergen Provides Durable and Expansive Protection against House Dust Mite Allergy” (ACS Pharmacology & Translational Science, 2022)
